These results are taken from patent US12636325B2, “Probiotic compositions for treating and preventing colorectal cancer” (The Chinese University of Hong Kong, priority 2021, dated 2026).

Test [1] deals with T1, aryl hydrocarbon receptor (AhR) (Homo sapiens, UniProt P35869).
T1 construct: endogenous in cells
The experiment in a line: Transcription of AhR after AhR antagonist. Type of test: cell-based. The note with it: 100 nM.

For test [2], the system named is CRC cell lines (HCT116 and LoVo). The experiment in a line: Cell viability (MTT) assay, CRC cell lines. The class given is cell-based. The procedure: After culturing L. gallinarum or E. coli MG1655 for 1-2 days, the bacterial concentration in each culture medium was measured using NanoDrop spectrophotometer (NanoDrop Technologies, Wilmington, DE). BHI cultures were diluted to ensure equal concentrations of L. gallinarum and E. coli. Culture supernatants were then collected by centrifugation at 5,000 rpm for 10 minutes, followed by sterile filtration with a 0.22-μm membrane. Filtrates were collected and termed as L. gallinarum culture supernatant (LGCS) or E. coli MG1655 culture supernatant (ECCS). Bacterial culture supernatant was separated into low-molecular-weight (LMW) and high-molecular-weight (HMW) using Amicon Ultra-15 Centrifugal Filter Units with a pore size of 3 kilodalton (kDa, Millipore, Bedford, MA). After centrifugation in a swinging bucket rotor at 4,000 g for 30 minutes, cells were cultured in medium containing […] or control broth (LMW, 10%; HMW, 1%). The bacterial supernatants were heated at 100° C. for 30 minutes or treated with proteinase k (50 ug/ml; QIAGEN GmbH, Hilden, Germany). […] Cell proliferation was measured by MTT assay for 5 consecutive days. The amount of MTT formazan product was determined by measuring absorbance at a wavelength of 570 nm (OD570) with a microplate reader (Multiskan GO Microplate Spectrophotometer, Thermo Scientific, Vantaa, Finland). […]

Test [3] has as its system Apc^min/+ mice. The experiment in a line: Intestinal tumorigenesis in Apc^Min/+ mice gavaged with L. gallinarum. Type of test: in vivo. The settings on record: male and female Apc^Min/+ mice with CH-223191 treatment. The method, then:
[…] Apc^Min/+ mice at 5 to 6 weeks old were divided into 3 groups with or without CH-223191 treatment: (1) control; (2) E. coli MG1655; and (3) L. gallinarum. L. gallinarum and E. coli MG1655 were cultured in MRS broth (Difco Laboratories, Detroit, MN) and BHI broth, respectively. After one day, 1.0×10^8 colony-forming units (CFUs) bacteria were collected and resuspended in 100 ul PBS. Mice were gavaged once daily for 8 weeks and body weight and stool were examined weekly.
Mouse colonoscopy (Karl Storz Endoskope, Tuttlingen, Germany) was performed prior to sacrifice. The colonoscope was inserted into the anus and advanced proximally under direct visualization, facilitated by air insufflation, and representative pictures of the colon tumor from each group were recorded. After 8 weeks of gavage, mice were anaesthetized and sacrificed. Small intestines and colons of mice were longitudinally opened and rinsed with PBS. Total number of tumors in small intestine and colon were recorded. Size of each tumor was measured using previous published formula^42. All animal studies were performed in accordance with guidelines approved by the Animal Experimentation Ethics Committee of The Chinese University of Hong Kong.
To investigate the effect of L. gallinarum on colorectal tumorigenesis, Apc^Min/+ mice were first used. […]

Test [4] relates to Apc^min/+ mice. The experiment in a line: Gavage of ILA into Apc^Min/+ mice. Type of test: in vivo. The note with it: gavage 20 mg/kg. The method, then:
Functional investigation of ILA in CRC tumorigenesis was then performed in vivo. […] Moreover, additional experiments were performed to investigate if antagonizing ILA could abrogate L. gallinarum medicated anti-cancer effect. […] Thus, ILA can contribute, at least in part, to the tumor-suppressive effect of L. gallinarum.

Test [5] relates to CRC cell lines, HCT116 and LoVo. Kind of test: Apoptosis assay (Annexin V-PE / 7-AAD flow cytometry), CRC cell lines. The class given is cell-based. The note with it: FIG. 18F. The method, then: Cells were plated on 6-well plates 24 hours prior to treatment, and cultured in medium containing 10% […] or control broth. CRC patient-derived organoids were cultured on 6-well plates, and 10% […] or control broth was added to Matrigel and growth medium. After treatment, cells and organoids were digested in 0.25% trypsin-EDTA (Gibco-Invitrogen Corp., Grand Island, NY) and TrypLE, respectively. For apoptosis assay, the proportion of apoptotic cells was evaluated by dual staining with Annexin V-PE and 7-Aminoactinomycin D (7-AAD) (BD Pharmingen, San Jose, CA). Combination of Annexin V-PE and 7-AAD staining distinguished early apoptotic cells (Annexin V+, 7-AAD-) and late apoptotic cells (Annexin V+, 7-AAD+). For cell cycle analysis, cells treated with 10% […] or control broth for 1 day were fixed and stained with 50 μg/ml propidium iodide (PI) (BD Pharmingen). Cell cycle of all stained cells were analyzed using […] cell sorter (BD Biosciences, San Jose, CA).

Each structure is given as a SMILES string.

T1 sequence (P35869 11-848): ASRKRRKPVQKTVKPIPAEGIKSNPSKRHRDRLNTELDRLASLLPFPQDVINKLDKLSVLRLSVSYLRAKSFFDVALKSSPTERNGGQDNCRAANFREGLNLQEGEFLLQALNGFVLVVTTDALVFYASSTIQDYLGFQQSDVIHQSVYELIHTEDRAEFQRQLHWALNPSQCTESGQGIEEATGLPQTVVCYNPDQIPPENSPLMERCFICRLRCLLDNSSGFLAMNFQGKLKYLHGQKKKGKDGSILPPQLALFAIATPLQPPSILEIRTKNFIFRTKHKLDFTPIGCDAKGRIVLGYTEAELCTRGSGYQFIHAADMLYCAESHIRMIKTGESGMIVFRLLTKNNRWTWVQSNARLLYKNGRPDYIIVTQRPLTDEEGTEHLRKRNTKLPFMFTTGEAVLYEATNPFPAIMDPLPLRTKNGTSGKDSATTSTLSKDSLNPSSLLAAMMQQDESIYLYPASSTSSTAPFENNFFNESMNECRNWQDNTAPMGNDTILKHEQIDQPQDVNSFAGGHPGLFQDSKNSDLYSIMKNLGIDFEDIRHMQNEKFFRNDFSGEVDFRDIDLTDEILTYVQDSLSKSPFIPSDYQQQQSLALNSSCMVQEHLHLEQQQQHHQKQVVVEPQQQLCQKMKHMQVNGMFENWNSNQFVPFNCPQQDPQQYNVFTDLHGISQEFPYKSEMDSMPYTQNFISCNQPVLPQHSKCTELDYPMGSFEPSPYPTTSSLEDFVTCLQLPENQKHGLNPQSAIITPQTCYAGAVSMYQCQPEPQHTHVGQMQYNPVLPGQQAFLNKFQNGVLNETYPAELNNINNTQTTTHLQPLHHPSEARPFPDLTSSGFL

Turning to `Cc1ccccc1N=Nc1ccc(NC(=O)c2ccnn2C)c(C)c1` [CH-223191], the “transcription of AhR” value in test [1] is on record as “significantly suppressed”. In addition, in test [2] (CRC cells pre-treated with 100 nM for 12 hours before culture supernatant), the “effect on CRC suppression by L. gallinarum in vitro” value is reported as “abolished the effect of L. gallinarum in suppressing CRC”. Also, in the test on Apc^min/+ mice [3], the “effect on CRC suppression by L. gallinarum in Apc^Min/+ mice” value is “abolished the effect of L. gallinarum in suppressing CRC”.
For `O=C(O)C(O)Cc1c[nH]c2ccccc12` (stereo not drawn) [ILA, indole-3-lactic acid], in test [2] (same amount of ILA as produced from L. gallinarum), the “cell viability of CRC cells” value is “decreased substantially”. In the test with Apc^min/+ mice [4], the “cells with positive TUNEL staining, adjacent normal tissues” value was “but not in adjacent normal tissues”; the “cells with positive TUNEL staining, tumor tissues” value is listed as “increased”; the tumor number entry is “significantly reduced”; the tumor size result is on record as “significantly reduced”. Further, the “cell apoptosis of CRC cells” value in test [5] is “significantly increased”.
